These results are taken from article PMC4942689, “Deciphering the function of the CNGB1b subunit in olfactory CNG channels” (Scientific Reports, 2016).

“And” between values parts separate entries of the source, which are not always exact repeats. Identical values can stand only once. Like-named read-outs stand apart in the source and are kept apart here.

For one assay, the target named is T1, CNGA2RE:A4RE:B1bRE (Rattus norvegicus, UniProt A0A8I5ZN27+Q00195+Q64359, R1106E/R430E/R538E).
T1 construct: expressed in transfected cells; host or cells: Xenopus laevis oocytes (cRNA injection), excised inside-out patches
T1 sequence (Q00195 whole entry R538E): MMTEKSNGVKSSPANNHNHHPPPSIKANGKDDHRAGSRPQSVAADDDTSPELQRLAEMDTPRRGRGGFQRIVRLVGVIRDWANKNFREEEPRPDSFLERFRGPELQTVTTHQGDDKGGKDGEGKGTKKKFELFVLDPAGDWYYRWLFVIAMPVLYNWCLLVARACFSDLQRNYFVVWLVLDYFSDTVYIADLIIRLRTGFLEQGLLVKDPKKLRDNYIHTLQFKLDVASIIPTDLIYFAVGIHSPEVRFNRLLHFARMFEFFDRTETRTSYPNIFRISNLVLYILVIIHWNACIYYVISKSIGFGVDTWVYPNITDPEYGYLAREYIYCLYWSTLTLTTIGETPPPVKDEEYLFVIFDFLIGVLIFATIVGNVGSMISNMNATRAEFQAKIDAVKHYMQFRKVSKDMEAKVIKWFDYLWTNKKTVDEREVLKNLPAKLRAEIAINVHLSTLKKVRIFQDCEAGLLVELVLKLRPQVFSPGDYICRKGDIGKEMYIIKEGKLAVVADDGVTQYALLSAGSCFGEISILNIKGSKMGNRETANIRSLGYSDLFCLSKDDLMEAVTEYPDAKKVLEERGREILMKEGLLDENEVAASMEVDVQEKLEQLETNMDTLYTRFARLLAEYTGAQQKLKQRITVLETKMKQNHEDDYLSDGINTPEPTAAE
T1 sequence (Q64359 whole entry R430E): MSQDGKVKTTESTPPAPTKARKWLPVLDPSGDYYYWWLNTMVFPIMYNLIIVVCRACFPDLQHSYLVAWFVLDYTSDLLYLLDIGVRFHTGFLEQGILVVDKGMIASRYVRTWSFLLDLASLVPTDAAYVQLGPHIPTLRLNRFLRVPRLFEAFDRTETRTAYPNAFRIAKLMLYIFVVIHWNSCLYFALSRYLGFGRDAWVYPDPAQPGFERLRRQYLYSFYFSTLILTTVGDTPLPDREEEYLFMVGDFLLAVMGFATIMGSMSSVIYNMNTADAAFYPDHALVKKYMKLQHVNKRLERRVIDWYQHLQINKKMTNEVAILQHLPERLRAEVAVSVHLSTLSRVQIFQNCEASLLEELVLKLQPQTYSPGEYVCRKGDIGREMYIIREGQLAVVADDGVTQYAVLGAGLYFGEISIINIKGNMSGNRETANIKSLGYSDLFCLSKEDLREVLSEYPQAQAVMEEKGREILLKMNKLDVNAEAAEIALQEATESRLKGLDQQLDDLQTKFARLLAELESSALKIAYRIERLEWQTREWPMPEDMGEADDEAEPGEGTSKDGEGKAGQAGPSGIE
T1 sequence (A0A8I5ZN27 1-858 isoform A0A8I5ZN27-2 R657E): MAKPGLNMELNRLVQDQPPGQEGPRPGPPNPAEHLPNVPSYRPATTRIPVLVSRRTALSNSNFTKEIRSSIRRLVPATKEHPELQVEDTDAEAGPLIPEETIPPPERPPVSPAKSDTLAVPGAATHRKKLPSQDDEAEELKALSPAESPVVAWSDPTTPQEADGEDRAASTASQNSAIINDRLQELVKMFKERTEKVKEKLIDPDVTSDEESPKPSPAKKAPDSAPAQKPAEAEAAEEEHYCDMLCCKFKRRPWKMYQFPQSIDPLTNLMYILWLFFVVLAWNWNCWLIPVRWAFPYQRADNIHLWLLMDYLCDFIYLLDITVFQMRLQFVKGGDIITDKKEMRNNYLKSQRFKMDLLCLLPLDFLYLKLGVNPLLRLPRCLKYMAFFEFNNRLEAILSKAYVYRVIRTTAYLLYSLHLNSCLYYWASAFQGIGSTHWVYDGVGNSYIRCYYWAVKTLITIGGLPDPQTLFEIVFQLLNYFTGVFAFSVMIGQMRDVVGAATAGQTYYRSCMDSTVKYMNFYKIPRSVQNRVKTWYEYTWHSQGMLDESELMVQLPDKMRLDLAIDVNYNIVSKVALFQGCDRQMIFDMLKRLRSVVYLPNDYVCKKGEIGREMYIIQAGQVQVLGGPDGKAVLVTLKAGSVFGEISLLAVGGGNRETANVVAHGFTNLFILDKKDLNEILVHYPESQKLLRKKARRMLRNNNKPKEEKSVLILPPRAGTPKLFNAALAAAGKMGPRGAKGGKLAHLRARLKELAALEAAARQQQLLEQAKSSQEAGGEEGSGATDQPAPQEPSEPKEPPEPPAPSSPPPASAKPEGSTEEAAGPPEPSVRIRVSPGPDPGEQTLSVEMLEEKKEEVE
The assay is described as follows: Channel activation during confocal patch-clamp fluorometry. In kind it is biochemical. The following applies: 10 μM fcGMP; all four binding sites disabled. The method, then: (§1) To verify the hypothesis that the CNGB1b subunit in CNGA2:A4:B1b channels binds cyclic nucleotides, we coexpressed CNGB1b with CNGA4RE and either CNGA2RE or CNGA2TM and measured ligand binding in the presence of 10 μM fcGMP. […] To verify the specificity of the binding to the CNGB1b subunit in these heterotetrameric channels, we coexpressed the CNGB1bRE subunit with CNGA2RE and CNGA4RE.
(§2) Figure 2 In a CNGA2:A4 background the CNGB1b subunit binds both fcGMP and fHcAMP and activates the channel. (a) Binding of fcGMP to the CNGB1b subunit evokes channel activation. Binding of fcGMP to CNGB1b was observed when coexpressed with either CNGA2RE:A4RE or CNGA2TM:A4RE (upper diagram). […] (b) Binding of fHcAMP to CNGB1b was observed when coexpressed with both CNGA2RE and CNGA4RE. When disabling the binding domain of CNGB1b, the fluorescence intensity was nearly abolished. Correspondingly, CNGA2RE:A4RE:B1b channels were activated by the ligand only when the CNGB1b binding site was available.
(§3) Patch-clamp experiments were performed using an Axopatch 200B amplifier (Molecular Devices LLC, CA, U.S.A.) in the inside-out configuration. The patch pipettes for recording of macroscopic currents were pulled from borosilicate glass tubing (outer diameter 2.0 mm, inner diameter 1.0 mm; Hilgenberg GmbH, Germany). The initial resistance was 0.7–1.3 MΩ. The patches were formed as pushed inside-out patches. […] Cyclic nucleotide concentration jumps were performed using a double-barreled glass pipette mounted on a piezo-driven device. Intracellular (bath) and extracellular (pipette) solutions contained (mM) 150 KCl, 1 EGTA, 5 Hepes, pH = 7.4 with KOH. […] Currents in the absence of the cyclic nucleotide were subtracted. All patches included in this study were first tested for channel expression in the presence of a saturating ligand concentration. Only patches with large current, i.e. a large number of channels, were included in our statistics. The currents were measured at +10 mV or, if mentioned, at +100 mV.
(§4) The ligand binding was measured in macropatches by patch-clamp fluorometry[41][42] combined with confocal microscopy. […] Recordings were performed with an LSM 510 or 710 confocal microscope (Zeiss, Jena, Germany) and were triggered by the ISO3 software (MFK, Niedernhausen, Germany). To distinguish between the fluorescence of the unbound ligands from that of the bound ligands, a second dye, DY647 (Dyomics, Jena, Germany), was added to the bath solution. The 543-nm and 633-nm lines of a He-Ne laser were used to excite fcAMP/fcGMP and DY647, respectively. The method of confocal patch-clamp fluorometry has been described in detail previously.
For orientation: In patch-clamp work, channel activity is measured electrically.

For a further assay, the target named is T2, CNGA2TM:A4RE:B1b (Rattus norvegicus, UniProt A0A8I5ZN27+Q00195+Q64359, R430E/T539M).
T2 construct: expressed in transfected cells; host or cells: Xenopus laevis oocytes (cRNA injection), excised inside-out patches
T2 sequence (Q00195 whole entry T539M): as the sequence (Q00195 whole entry R538E) above, with E538R, T539M counted along it
T2 sequence (Q64359 whole entry R430E): as the sequence (Q64359 whole entry R430E) above
T2 sequence (A0A8I5ZN27 1-858 isoform A0A8I5ZN27-2, stated change not applied): as the sequence (A0A8I5ZN27 1-858 isoform A0A8I5ZN27-2 R657E) above, with E657R counted along it
Described as above. In kind it is biochemical. The following applies: 10 μM fcGMP; normalized to current at 4 mM cGMP. The protocol:
as §1, §2, §3, §4

The next assay has as its target T3, CNGA2TM:A4RE:B1bRE (Rattus norvegicus, UniProt A0A8I5ZN27+Q00195+Q64359, R1106E/R430E/T539M).
T3 construct: expressed in transfected cells; host or cells: Xenopus laevis oocytes (cRNA injection), excised inside-out patches
The assay is described as above. In kind it is biochemical. The following applies: 10 μM fcGMP; all four binding sites disabled. The method, then:
as §1, §2, §3, §4

A further assay has as its system CNGA2TM:A4 channels. Set-up: method as in PMID 22786723. The settings on record: cited from earlier work.
Another assay addresses T4, CNGA2:A4:B1b channels (Rattus norvegicus, UniProt A0A8I5ZN27+Q00195+Q64359).
T4 construct: expressed in transfected cells; host or cells: Xenopus laevis oocytes (cRNA injection 2:1:1), excised inside-out patches
The assay is described as follows: Concentration-activation relationship, inside-out patch-clamp. Type of assay: biochemical. The settings on record: CNGA2:A4:B1b. The protocol: as §3
(§5) Fits of equations to data points were performed with the 8.1G® software (OriginLab Corporation, Northampton, U.S.A.). Concentration-activation relationships were obtained by relating the actual current amplitude, I, to the maximum current amplitude elicited by a saturating concentration of ligand, Imax, and plotting this ratio as function of the ligand concentration, x. The concentration-activation data were fitted using the Hill equation
where EC50 is the ligand concentration of half maximum effect and H the Hill coefficient.
In fHcAMP the dye DY547 is coupled to
(b) Concentration-activation relationships of the CNGA2:A4:B1b channels activated by either
The currents were recorded […]

In a further assay the target is T5, CNGA2RE:A4:B1b channels (Rattus norvegicus, UniProt A0A8I5ZN27+Q00195+Q64359, R538E).
T5 construct: expressed in transfected cells; host or cells: Xenopus laevis oocytes (cRNA injection), excised inside-out patches
T5 sequence (Q00195 whole entry R538E): as the sequence (Q00195 whole entry R538E) above
T5 sequence (Q64359 whole entry): as the sequence (Q64359 whole entry R430E) above, with E430R counted along it
T5 sequence (A0A8I5ZN27 1-858 isoform A0A8I5ZN27-2, stated change not applied): as the sequence (A0A8I5ZN27 1-858 isoform A0A8I5ZN27-2 R657E) above, with E657R counted along it
The assay is described as follows: Concentration-activation relationship, patch-clamp. In kind it is biochemical. The settings on record: for EC50: Equation 2, +100 mV. The method, then:
In order to consider the combined apparent affinity of CNGA4 and CNGB1b, we measured the concentration-response relationship of CNGA2RE:A4:B1b channels (Fig. 3c; Table 1).
as §3, §5
For the concentration-activation relationships showing two components, the data points were fitted to the sum of two Hill equations according to
EC50,h, EC50,l, Hh, and Hl are the ligand concentration of half maximum current and the Hill coefficient for the high and low affinity component, respectively. a and (1-a) denote the contribution of the high and low affinity component, respectively.

The test system of assay [1] is homotetrameric CNGA2RE (R538E) channels. Set-up: method as in Nache et al., 2012. The following applies: Equation 1, ref Nache et al., 2012; cited from earlier work.

T4 sequence (Q00195 whole entry): as the sequence (Q00195 whole entry R538E) above, with E538R counted along it
T4 sequence (Q64359 whole entry): as the sequence (Q64359 whole entry R430E) above, with E430R counted along it
T4 sequence (A0A8I5ZN27 1-858 isoform A0A8I5ZN27-2): as the sequence (A0A8I5ZN27 1-858 isoform A0A8I5ZN27-2 R657E) above, with E657R counted along it
T3 sequence (Q00195 whole entry T539M): as the sequence (Q00195 whole entry R538E) above, with E538R, T539M counted along it
T3 sequence (Q64359 whole entry R430E): as the sequence (Q64359 whole entry R430E) above
T3 sequence (A0A8I5ZN27 1-858 isoform A0A8I5ZN27-2 R657E): as the sequence (A0A8I5ZN27 1-858 isoform A0A8I5ZN27-2 R657E) above

By EC50 is commonly meant the midpoint of the concentration-response curve. With 8-[DY-547]-AET-cGMP [fcGMP], the activation result on CNGA2RE:A4RE:B1bRE and on CNGA2TM:A4RE:B1bRE was “did not trigger activation” in each case. The “activation (I/Imax)” value at CNGA2TM:A4RE:B1b turned out to be 1.7 ± 0.6%. The “degree of activation induced by binding to CNGA4” value with CNGA2TM:A4 channels (CNGA2TM:A4 channels) is listed as ~ 12%. For the same molecule, the EC50 in the assay with CNGA2TM:A4 channels (in the presence of CNGA2TM only, read-out: EC50,h value for CNGA4) is 6.8 µM.
In the case of `Nc1nc2c(ncn2[C@@H]2O[C@@H]3COP(=O)(O)O[C@H]3[C@H]2O)c(=O)[nH]1` [cGMP], the EC50 at CNGA2:A4:B1b channels (Equation 1) is 0.76 µM; on CNGA2RE:A4:B1b channels (high affinity component (CNGA4 and CNGB1b combined), read-out: EC50,h), 5.7 µM; on CNGA2RE:A4:B1b channels (low affinity component, read-out: EC50,l), 733 µM; in assay [1] it was 607 µM. This molecule also had a H on CNGA2:A4:B1b channels (Hill coefficient) of 2.0. Besides, on CNGA2RE:A4:B1b channels (Hill coefficient of high affinity component, +100 mV), the Hh is 1.05 and 1.1. For the same molecule, the H1 on CNGA2RE:A4:B1b channels (Hill coefficient of low affinity component, +100 mV) was 1.2. The “contribution of the high-affinity component (a)” value on CNGA2RE:A4:B1b channels (combined contribution of CNGA4 and CNGB1b) is 89%. Besides, the “a (contribution of the high affinity component)” value at CNGA2RE:A4:B1b channels (fraction, Equation 2) was 0.89.
